Data from article PMC11879280, “Antimicrobial activity of peptoids against Metallo-β-lactamase-producing Klebsiella pneumoniae, Acinetobacter baumannii, Pseudomonas aeruginosa, and other WHO priority pathogens, including Candida auris” (Journal of Applied Microbiology, 2025).
Like-named read-outs stand apart in the source and are kept apart here. Square brackets hold non-standard residues; d marks the D form. Peptide text beside a SMILES is read from it. Nspe(4-Br) = C[C@H](NCC(=O)O)c1ccc(Br)cc1; Nspe = C[C@H](NCC(=O)O)c1ccccc1; Nlys = NCCCCNCC(=O)O

Legend:
C. auris strains = details: two C. auris strains
Procedure: Briefly, bacteria were suspended in cation-adjusted Mueller–Hinton broth (CAMHB; Oxoid, UK) for antibiotics, or MHB (Oxoid, UK) for peptidomimetics to obtain 5 × 10^5 colony forming unit (CFU) ml^−1. […] Positive controls contained only microbes, and blanks contained only media. Microbial suspensions (100 µl) were added to wells, plates wrapped, and incubated at 37°C, 120 rpm for 16–20 h. After incubation, suspensions were removed, log10 diluted, and plated on Trypticase Soya Agar with phosphatidylcholine and Tween 80 to determine minimum bactericidal or fungicidal concentration (MBC or MFC). […] Geometric mean MIC of the peptoids were calculated to evaluate the broad overview of antimicrobial activity across the pathogens.
The therapeutic indices (TIs) of the compounds were calculated with the use of following formula: […]

C. auris CBS12373 = experiment: Broth microdilution MIC; type: cell-based, Candida auris
A. baumannii 006 = tested on: A. baumannii 006
Procedure, shortened: (§1)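 Bacteria were suspended at 5 × 10^5 CFU ml^−1 in CAMHB for antibiotics or MHB for peptidomimetics, then incubated at 37°C, 120 rpm for 16–20 h. Suspensions were log10 diluted and plated on Trypticase Soya Agar with phosphatidylcholine and Tween 80 for MBC.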

K. pneumoniae JIE4212 = tested on: K. pneumoniae JIE4212
Procedure, shortened: as §1

E. coli 0011 = tested on: E. coli 0011
Procedure, shortened: as §1

A. baumannii 007 = tested on: A. baumannii 007
Procedure, shortened: as §1

En. cloacae 001 = tested on: En. cloacae 001
Procedure, shortened: as §1

A. baumannii 008 = tested on: A. baumannii 008
Procedure, shortened: as §1

S. aureus 38 = tested on: S. aureus 38
Procedure, shortened: as §1

A. baumannii ATCC 19 606 = tested on: A. baumannii ATCC 19 606
Procedure, shortened: as §1

E. coli 0015 = tested on: E. coli 0015
Procedure, shortened: as §1

P. aeruginosa 216 = tested on: P. aeruginosa 216
Procedure, shortened: as §1

E. coli 005 = tested on: E. coli 005
Procedure, shortened: as §1

En. cloacae 005 = tested on: En. cloacae 005
Procedure, shortened: as §1

En. cloacae 003 = tested on: En. cloacae 003
Procedure, shortened: as §1

S. aureus 117 = tested on: S. aureus 117
Procedure, shortened: as §1

K. pneumoniae JIE2713 = tested on: K. pneumoniae JIE2713
Procedure, shortened: as §1

P. aeruginosa AR-1270 = tested on: P. aeruginosa AR-1270
Procedure, shortened: as §1

P. aeruginosa 33 = tested on: P. aeruginosa 33
Procedure, shortened: as §1

[1] = tested on: horse red blood cells (RBCs); experiment: Haemolysis assay; type: cell-based
Procedure: The haemolytic activity of the peptidomimetics was performed to determine mammalian cell safety. This assay used horse red blood cells (RBCs) (Sigma–Aldrich, USA) as described previously (Willcox et al. [2008], Chongsiriwatana et al. [2017], Yasir et al. [2019b]). RBCs were washed three times with PBS at 470 g for 5 min. Peptoids (0.5–250 μg ml^−1) were prepared in PBS and added to washed RBCs, then incubated at 37°C for 4 h. After incubation, cells were centrifuged at 1057 g for 10 min, and the supernatant’s OD at 540 nm was measured for lysis. PBS-only RBCs served as the negative control (no haemolysis), and Milli-Q water-treated RBCs as the positive control (100% lysis). Percent haemolysis was calculated as: (ODT − ODNC)/(ODPC − ODNC) × 100, where ODT, ODNC, and ODPC are the absorbances of the test, negative, and positive controls, respectively. This experiment was performed in triplicate.

## C[C@@H](c1ccc(Br)cc1)N(CC(=O)N(CCCCN)CC(=O)N(CC(=O)N(CC(=O)N(CCCCN)CC(N)=O)[C@@H](C)c1ccc(Br)cc1)[C@@H](C)c1ccccc1)C(=O)CN(C(=O)CNCCCCN)[C@@H](C)c1ccccc1 [TM12] (H-[Nlys][Nspe][Nspe(4-Br)][Nlys][Nspe][Nspe(4-Br)][Nlys]-NH2)
C. auris strains
  Geometric mean MICCA: 15.6 µg/mL
C. auris CBS12373; CBS 12 373, RPMI 1640 with MOPS, 5 × 10^3 CFU ml^−1, ≥90% reduction (≥50% for fluconazole)
  MIC against C. auris: 3.9 mg/L
C. auris CBS12373; CBS12373
  MIC against C. auris: 3.2 µM
A. baumannii 006; 006
  MIC of peptidomimetics: 103.8 µM
A. baumannii 006; A. baumannii 006, MHB (melimine/Mel4 with 0.2% BSA, 0.01% acetic acid), mean MIC
  MIC of peptidomimetics: 125 mg/L
K. pneumoniae JIE4212; JIE4212
  MIC of peptidomimetics: 103.8 µM
K. pneumoniae JIE4212; K. pneumoniae JIE4212, MHB (melimine/Mel4 with 0.2% BSA, 0.01% acetic acid), mean MIC
  MIC of peptidomimetics: 125 mg/L
E. coli 0011; 0011
  MIC of peptidomimetics: 25.9 µM
E. coli 0011; E. coli 0011, MHB (melimine/Mel4 with 0.2% BSA, 0.01% acetic acid), mean MIC
  MIC of peptidomimetics: 31.3 mg/L
A. baumannii 007; 007
  MIC of peptidomimetics: 51.8 µM
A. baumannii 007; A. baumannii 007, MHB (melimine/Mel4 with 0.2% BSA, 0.01% acetic acid), mean MIC
  MIC of peptidomimetics: 62.5 mg/L
En. cloacae 001
  MIC of peptidomimetics: 13.0 µM
En. cloacae 001; En. cloacae 001, MHB (melimine/Mel4 with 0.2% BSA, 0.01% acetic acid), mean MIC
  MIC of peptidomimetics: 15.6 mg/L
A. baumannii 008; 008
  MIC of peptidomimetics: 51.8 µM
A. baumannii 008; A. baumannii 008, MHB (melimine/Mel4 with 0.2% BSA, 0.01% acetic acid), mean MIC
  MIC of peptidomimetics: 62.5 mg/L
S. aureus 38; 38
  MIC of peptidomimetics: 6.5 µM
S. aureus 38; S. aureus 38, MHB (melimine/Mel4 with 0.2% BSA, 0.01% acetic acid), mean MIC
  MIC of peptidomimetics: 7.8 mg/L
A. baumannii ATCC 19 606; A. baumannii ATCC 19 606, MHB (melimine/Mel4 with 0.2% BSA, 0.01% acetic acid), mean MIC
  MIC of peptidomimetics: 125 mg/L
A. baumannii ATCC 19 606; ATCC 19
  MIC of peptidomimetics: 103.8 µM
E. coli 0015; 0015
  MIC of peptidomimetics: 51.8 µM
E. coli 0015; E. coli 0015, MHB (melimine/Mel4 with 0.2% BSA, 0.01% acetic acid), mean MIC
  MIC of peptidomimetics: 62.5 mg/L
P. aeruginosa 216; 216
  MIC of peptidomimetics: 25.9 µM
P. aeruginosa 216; P. aeruginosa 216, MHB (melimine/Mel4 with 0.2% BSA, 0.01% acetic acid), mean MIC
  MIC of peptidomimetics: 31.3 mg/L
E. coli 005; 005
  MIC of peptidomimetics: 103.8 µM
E. coli 005; E. coli 005, MHB (melimine/Mel4 with 0.2% BSA, 0.01% acetic acid), mean MIC
  MIC of peptidomimetics: 125 mg/L
En. cloacae 005
  MIC of peptidomimetics: 13.0 µM
En. cloacae 005; En. cloacae 005, MHB (melimine/Mel4 with 0.2% BSA, 0.01% acetic acid), mean MIC
  MIC of peptidomimetics: 15.6 mg/L
En. cloacae 003
  MIC of peptidomimetics: 3.3 µM
En. cloacae 003; En. cloacae 003, MHB (melimine/Mel4 with 0.2% BSA, 0.01% acetic acid), mean MIC
  MIC of peptidomimetics: 3.9 mg/L
S. aureus 117; 117
  MIC of peptidomimetics: 3.3 µM
S. aureus 117; S. aureus 117, MHB (melimine/Mel4 with 0.2% BSA, 0.01% acetic acid), mean MIC
  MIC of peptidomimetics: 3.9 mg/L
K. pneumoniae JIE2713; JIE2713
  MIC of peptidomimetics: 103.8 µM
K. pneumoniae JIE2713; K. pneumoniae JIE2713, MHB (melimine/Mel4 with 0.2% BSA, 0.01% acetic acid), mean MIC
  MIC of peptidomimetics: 125 mg/L
P. aeruginosa AR-1270; AR-1270
  MIC of peptidomimetics: 103.8 µM
P. aeruginosa AR-1270; P. aeruginosa AR-1270, MHB (melimine/Mel4 with 0.2% BSA, 0.01% acetic acid), mean MIC
  MIC of peptidomimetics: 125 mg/L
P. aeruginosa 33; 33
  MIC of peptidomimetics: 3.3 µM
P. aeruginosa 33; P. aeruginosa 33, MHB (melimine/Mel4 with 0.2% BSA, 0.01% acetic acid), mean MIC
  MIC of peptidomimetics: 3.9 mg/L
[1]
  HD10 (10% haemolytic dose): 66.4 µmol/L
  HD50 (50% haemolytic dose): 212.6 µmol/L
[1]; red cells of horse, 4 h
  HD10 (10% haemolytic dose): 80 µg/mL
  HD50 (50% haemolytic dose): > 256 µg/mL
